Measurements reported in article PMC11822212, “High-throughput screening identifies Aurora kinase B as a critical therapeutic target for Merkel cell carcinoma” (Nature Communications, 2025).

Legend:
[1] = system: MCC13 cells (VN-MCC); test: qHTS cell viability (CellTiter-Glo, 72 h; primary and follow-up small molecule screen); assay type: cell-based, human
[2] = system: MCC26 cells (VN-MCC); test: as above; assay type: cell-based, human
[3] = system: UISO cells (VN-MCC); test: as above; assay type: cell-based, human
[4] = system: WAGA cells (VP-MCC); test: as above; assay type: cell-based, human
[5] = system: MKL-1 cells (VP-MCC); test: as above; assay type: cell-based, human
[6] = system: MKL-2 cells (VP-MCC); test: as above; assay type: cell-based, human
[7] = system: HACAT cells; test: qHTS cell viability (CellTiter-Glo, 72 h; primary screen), control cell line; assay type: cell-based, human
[8] = system: HEK293T cells; test: as above; assay type: cell-based, human
[9] = system: NIH-3T3 cells; test: as above; assay type: cell-based, mouse
[10] = system: CRL-7250 cells; test: as above; assay type: cell-based
[11] = system: MCC cell lines (WAGA, MKL-1, MKL-2, MCC13, MCC26, UISO); test: qHTS cell viability, all six MCC cell lines as a group (mean AUC, MCC.avg); assay type: cell-based, human; details: mean AUC of six MCC cell lines
[12] = system: VP-MCC cell lines (WAGA, MKL-1, MKL-2); test: qHTS cell viability, VP-MCC cell lines as a group (mean AUC, VP.MCC.avg); assay type: cell-based, human; details: for VP-MCC_Avg_AUC: mean AUC of VP-MCC cell lines
[13] = system: VN-MCC cell lines (MCC13, MCC26, UISO); test: qHTS cell viability, VN-MCC cell lines as a group (mean AUC, VN.MCC.avg); assay type: cell-based, human; details: for VN-MCC_Avg_AUC: mean AUC of VN-MCC cell lines
[14] = system: control cell lines (HACAT, HEK293T, CRL-7250, NIH-3T3); test: qHTS cell viability, control cell lines as a group (mean AUC, Control.avg); assay type: cell-based; details: mean AUC of control cell lines
[15] = system: six MCC cell lines and four control cell lines; test: qHTS cell viability, all 10 cell lines screened; assay type: cell-based
[16] = NPC library, 8-point DRC, area under dose-response curve
[17] = NPC library, 8-point DRC, control cell line
[18] = MIPE library, 11-point DRC, sheet S2E
[19] = MIPE library, 11-point DRC, control cell line, sheet S2E

## O=S1(=O)OC(c2ccc(O)cc2)(c2ccc(O)cc2)c2ccccc21 [Phenol red]
[1]; [16]
  MCC13_AUC: 422.151
[2]; [16]
  MCC26_AUC: 404.069
[3]; [16]
  UISO_AUC: 423.512
[4]; [16]
  WAGA_AUC: 458.996
[5]; [16]
  MKL1_AUC: 429.88
[6]; [16]
  MKL2_AUC: 451.959
[7]; [17]
  HACAT_AUC: 492.366
[8]; [17]
  HEK293T_AUC: 472.146
[9]; [17]
  NIH3T3_AUC: 484.742
[10]; [17]
  CRL7250_AUC: 462.075
[11]; NPC library
  MCC_Avg_AUC: 431.761
[12]; NPC library, Control AUC minus VP-MCC AUC (therapeutic window)
  Control-VP-MCC: 30.8871
[12]; NPC library
  VP-MCC_Avg_AUC: 446.945
[13]; NPC library, Control AUC minus VN-MCC AUC (therapeutic window)
  Control-VN-MCC: 61.2549
[13]; NPC library
  VN-MCC_Avg_AUC: 416.577
[14]; NPC library
  Control_Avg_AUC: 477.832
[15]; NPC library, Control AUC minus MCC AUC (therapeutic window)
  Control-MCC: 46.071

## O=C(CCCCCCCCC#CI)Oc1ccccc1 [Phenyl 11-iodo-10-undecynoate]
[1]; NPC library, qHTS dose-response AUC, MCC13
  MCC13_AUC: 470.776
[2]; NPC library, qHTS dose-response AUC, MCC26
  MCC26_AUC: 443.917
[3]; NPC library, qHTS dose-response AUC, UISO
  UISO_AUC: 437.546
[4]; NPC library, qHTS dose-response AUC, WAGA
  WAGA_AUC: 406.191
[5]; NPC library, qHTS dose-response AUC, MKL1
  MKL1_AUC: 407.973
[6]; NPC library, qHTS dose-response AUC, MKL2
  MKL2_AUC: 402.29
[7]; NPC library, qHTS dose-response AUC, HACAT control
  HACAT_AUC: 489.285
[8]; NPC library, qHTS dose-response AUC, HEK293T control
  HEK293T_AUC: 475.205
[9]; NPC library, qHTS dose-response AUC, NIH3T3 control
  NIH3T3_AUC: 495.803
[10]; NPC library, qHTS dose-response AUC, CRL7250 control
  CRL7250_AUC: 487.776
[11]; NPC library
  MCC_Avg_AUC: 428.115
[12]; NPC library
  VP-MCC_Avg_AUC: 405.485
[12]; NPC library, therapeutic window: Control avg AUC minus VP-MCC avg AUC
  Control-VP-MCC: 81.5325
[13]; NPC library
  VN-MCC_Avg_AUC: 450.746
[13]; NPC library, therapeutic window: Control avg AUC minus VN-MCC avg AUC
  Control-VN-MCC: 36.2708
[14]; NPC library
  Control_Avg_AUC: 487.017
[15]; NPC library, therapeutic window: Control avg AUC minus MCC avg AUC
  Control-MCC: 58.9016

## O=C(CCc1ccc(O)cc1)c1c(O)cc(O)cc1O [Phloretin]
[1]; [18]
  MCC13_AUC: 472.315
[1]; area under the dose-response curve, MCC13 cells, AUC<450 = reduced viability
  MCC13_AUC: 472.315
[1]; follow-up screen, MCC13, replicate 1
  Area under the dose-response curve (AUC) MCC13 Replicate 1: 534.6
[1]; follow-up screen, MCC13, replicate 2
  Area under the dose-response curve (AUC) MCC13 Replicate 2: 495.7
[1]; follow-up screen, MCC13, replicate 3
  Area under the dose-response curve (AUC) MCC13 Replicate 3: 492.0
[2]; [18]
  MCC26_AUC: 472.357
[2]; area under the dose-response curve, MCC26 cells, AUC<450 = reduced viability
  MCC26_AUC: 472.357
[2]; follow-up screen, MCC26, replicate 1
  Area under the dose-response curve (AUC) MCC26 Replicate 1: 472.4
[2]; follow-up screen, MCC26, replicate 2
  Area under the dose-response curve (AUC) MCC26 Replicate 2: 446.6
[2]; follow-up screen, MCC26, replicate 3
  Area under the dose-response curve (AUC) MCC26 Replicate 3: 497.7
[3]; [18]
  UISO_AUC: 485.008
[3]; area under the dose-response curve, UISO cells, AUC<450 = reduced viability
  UISO_AUC: 485.008
[3]; follow-up screen, UISO, replicate 1
  Area under the dose-response curve (AUC) UISO Replicate 1: 542.5
[3]; follow-up screen, UISO, replicate 2
  Area under the dose-response curve (AUC) UISO Replicate 2: 515.8
[3]; follow-up screen, UISO, replicate 3
  Area under the dose-response curve (AUC) UISO Replicate 3: 481.4
[4]; [18]
  WAGA_AUC: 402.295
[4]; area under the dose-response curve, WAGA cells, AUC<450 = reduced viability
  WAGA_AUC: 402.295
[4]; follow-up screen, WAGA, replicate 1
  Area under the dose-response curve (AUC) WAGA Replicate 1: 571.8
[4]; follow-up screen, WAGA, replicate 2
  Area under the dose-response curve (AUC) WAGA Replicate 2: 490.2
[4]; follow-up screen, WAGA, replicate 3
  Area under the dose-response curve (AUC) WAGA Replicate 3: 485.7
[5]; [18]
  MKL1_AUC: 433.632
[5]; area under the dose-response curve, MKL-1 cells, AUC<450 = reduced viability
  MKL1_AUC: 433.632
[5]; follow-up screen, MKL-1, replicate 1
  Area under the dose-response curve (AUC) MKL-1 Replicate 1: 526.8
[5]; follow-up screen, MKL-1, replicate 2
  Area under the dose-response curve (AUC) MKL-1 Replicate 2: 492.2
[5]; follow-up screen, MKL-1, replicate 3
  Area under the dose-response curve (AUC) MKL-1 Replicate 3: 497.0
[6]; [18]
  MKL2_AUC: 410.273
[6]; area under the dose-response curve, MKL-2 cells, AUC<450 = reduced viability
  MKL2_AUC: 410.273
[6]; follow-up screen, MKL-2, replicate 1
  Area under the dose-response curve (AUC) MKL-2 Replicate 1: 493.4
[6]; follow-up screen, MKL-2, replicate 2
  Area under the dose-response curve (AUC) MKL-2 Replicate 2: 509.3
[6]; follow-up screen, MKL-2, replicate 3
  Area under the dose-response curve (AUC) MKL-2 Replicate 3: 493.0
[7]; [19]
  HACAT_AUC: 476.785
[7]; area under the dose-response curve, HACAT control cells, AUC<450 = reduced viability
  HACAT_AUC: 476.785
[8]; [19]
  HEK293T_AUC: 470.007
[8]; area under the dose-response curve, HEK293T control cells, AUC<450 = reduced viability
  HEK293T_AUC: 470.007
[9]; [19]
  NIH3T3_AUC: 475.685
[9]; area under the dose-response curve, NIH3T3 control cells, AUC<450 = reduced viability
  NIH3T3_AUC: 475.685
[10]; [19]
  CRL7250_AUC: 456.981
[10]; area under the dose-response curve, CRL7250 control cells, AUC<450 = reduced viability
  CRL7250_AUC: 456.981
[11]; MIPE library, sheet S2E
  MCC_Avg_AUC: 445.98
[12]; MIPE library, Control AUC minus VP-MCC AUC (therapeutic window), sheet S2E
  Control-VP-MCC: 54.4642
[12]; MIPE library, sheet S2E
  VP-MCC_Avg_AUC: 415.4
[13]; MIPE library, Control AUC minus VN-MCC AUC (therapeutic window), sheet S2E
  Control-VN-MCC: -6.696
[13]; MIPE library, sheet S2E
  VN-MCC_Avg_AUC: 476.56
[14]; MIPE library, sheet S2E
  Control_Avg_AUC: 469.864
[15]; MIPE library, Control AUC minus MCC AUC (therapeutic window), sheet S2E
  Control-MCC: 23.8842
